Experimental data: article PMC5791972 (PLoS ONE, 2018)

Columns and labels:
NMRI mice = format: in vivo, mouse; conditions: 8 mg/kg oral
Procedure: NMRI mice were habituated to their room for at least 2 to 3 weeks after the delivery and kept under standard conditions in groups of 4–5 animals per cage. Food and water were available ad libitum.
The tail suspension test was performed using with a BIOSEB system. In preparation for the experiment, a piece of tape (approx. 15 cm long) was wrapped around the end of the mouse tail approximately 2 mm before the tip. The tape was then attached to a holding device within the measuring unit at a height of approximately 30cm.
Movements of the animals were monitored and automatically evaluated by corresponding software. The duration of immobility during 6 min observation period was recorded. At the end of the experiment plasma samples were taken and the animals were sacrificed via isofluorane inhalation and subsequent decapitation.

5-HT1B = 5-HT1B (Rattus norvegicus, UniProt P28564)
Chain of 5-HT1B (P28564 whole entry): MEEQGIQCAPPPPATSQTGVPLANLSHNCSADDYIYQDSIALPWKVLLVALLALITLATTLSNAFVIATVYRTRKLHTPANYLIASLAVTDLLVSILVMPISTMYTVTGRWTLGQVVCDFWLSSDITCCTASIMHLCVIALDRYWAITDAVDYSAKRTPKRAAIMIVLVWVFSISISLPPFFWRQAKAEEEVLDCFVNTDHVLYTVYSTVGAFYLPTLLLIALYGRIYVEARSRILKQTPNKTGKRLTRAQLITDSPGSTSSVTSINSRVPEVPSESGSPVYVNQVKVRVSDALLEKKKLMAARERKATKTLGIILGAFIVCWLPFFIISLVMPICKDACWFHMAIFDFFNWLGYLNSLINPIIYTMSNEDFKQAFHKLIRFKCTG

5-HT4e (h) = 5-HT4e (h) (Homo sapiens, UniProt Q13639)
Chain of 5-HT4e (h) (Q13639 1-378 isoform Q13639-5): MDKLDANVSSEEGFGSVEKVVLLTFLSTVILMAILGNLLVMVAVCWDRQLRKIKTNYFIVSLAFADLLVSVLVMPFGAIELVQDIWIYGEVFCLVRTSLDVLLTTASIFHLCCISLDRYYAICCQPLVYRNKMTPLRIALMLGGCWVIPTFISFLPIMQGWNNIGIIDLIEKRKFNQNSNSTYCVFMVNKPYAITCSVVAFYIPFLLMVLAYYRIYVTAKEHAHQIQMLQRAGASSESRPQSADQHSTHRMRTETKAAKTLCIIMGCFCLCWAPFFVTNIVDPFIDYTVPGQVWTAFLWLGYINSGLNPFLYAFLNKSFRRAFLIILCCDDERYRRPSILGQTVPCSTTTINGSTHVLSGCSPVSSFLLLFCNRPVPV

5-HT6 (h) = 5-HT6 (h) (Homo sapiens, UniProt P50406)
Chain of 5-HT6 (h) (P50406 whole entry): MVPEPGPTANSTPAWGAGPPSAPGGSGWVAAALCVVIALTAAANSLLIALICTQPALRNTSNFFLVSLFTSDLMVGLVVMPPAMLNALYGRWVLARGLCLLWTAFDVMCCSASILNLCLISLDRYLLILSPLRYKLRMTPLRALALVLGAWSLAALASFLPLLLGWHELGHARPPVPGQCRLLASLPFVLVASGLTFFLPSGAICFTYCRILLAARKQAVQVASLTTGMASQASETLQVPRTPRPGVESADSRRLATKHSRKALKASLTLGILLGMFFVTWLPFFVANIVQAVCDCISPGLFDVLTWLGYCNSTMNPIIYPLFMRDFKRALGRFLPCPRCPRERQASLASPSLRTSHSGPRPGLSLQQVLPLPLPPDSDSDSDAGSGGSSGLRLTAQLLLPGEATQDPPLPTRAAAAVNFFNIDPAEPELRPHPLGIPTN

CNCCCN1c2ccccc2CCc2ccccc21 [desipramine, reference compound]
time of immobility (NMRI mice): reduced the time of immobility

NCCc1c[nH]c2ccc(O)cc12 [serotonin]
nH (5-HT1B): 0.7
nH (5-HT4e (h)): 0.9
nH (5-HT6 (h)): 1.0
